The results in this text go back to US12630506B2, “Direct thrombin inhibitors and methods of use thereof” (Baylor College of Medicine, priority 2020, dated 2026).

For this assay, the target named is Thrombin (Homo sapiens, UniProt P00734). In words: Thrombin inhibition in vitro (Kiapp). Format: biochemical. The procedure: The inhibitory potency of Compound 1 on thrombin was tested in vitro.

For the compound `CNC(=O)[C@@H]1CN(C(=O)[C@H](Cc2ccccc2CNC(=N)N)NC(=O)N(C)[C@H]2CCOc3ccccc32)C[C@H]1c1ccc(OC)cc1` [Compound 1], under “in vitro, FIG. 1, read-out: inhibition constant (thrombin)”, the Ki came to 1 nM. Moreover, where the note is “ratio of inhibition constants vs argatroban”, the “potency relative to argatroban (thrombin inhibition)” value is “about 10 fold”.
